From patent publication US20070254891A1, “Crystalline forms of 4-(2-fluorophenyl)-6-methyl-2-(piperazin-1-yl)thieno[2,3-d]pyrimidine” (Dynogen Pharmaceuticals, Inc., priority 2006, published 2007) come the findings set out here.

This series in a line: Gravimetric vapor sorption (GVS). The class given is physicochemical. As for the experimental part: GVS was used to determine the amount of water adsorbed by a sample. Briefly, samples were run on a Hiden IGASorp moisture sorption analyzer running CFRSorp software. Sample sizes were typically 10 mg. A moisture adsorption desorption isotherm was performed as outlined below in Table 3 (2 scans giving 1 complete cycle). Samples were loaded/unloaded at typical room humidity and temperature (40% RH, 25° C.). Samples were then analyzed by XRPD after GVS analysis, e.g., to determine whether any structural changes took place after adsorption of water. The standard isotherm was performed at 25° C. at 10% RH intervals over a 0-90% RH range.

On to `Cc1cc2c(-c3ccccc3F)nc(N3CCNCC3)nc2s1.Cl` [Form II, 4-(2-fluorophenyl)-6-methyl-2-(piperazin-1-yl)thieno[2,3-d]pyrimidine hydrochloride], for which the “XRPD reanalysis after GVS” value (after one adsorption/desorption cycle) was “did not show any change”. Further, where the note is “between 0 and 40% RH”, the GVS weight increase turned out to be 1.4% and the “GVS weight increase, equivalent water” value is listed as 0.29 moles of water. In addition, the “GVS weight increase, equivalent water” value (between 0 and 90% RH) was 0.39 moles of water. Moreover, the “GVS total weight increase” value (between 0 and 90% RH, single cycle, 25° C., hydrochloride) is reported as 1.9%.
